Data: BindingDB's records for doi:10.1021/np8001145 (Kaohsiung Medical University, 2008)
pIC50: −log10 of the molar value.

Target: Xanthine dehydrogenase/oxidase (Homo sapiens, UniProt P47989)
Assay: Inhibition of xanthine oxidase

Xanthine dehydrogenase/oxidase, sequence (P47989 whole entry): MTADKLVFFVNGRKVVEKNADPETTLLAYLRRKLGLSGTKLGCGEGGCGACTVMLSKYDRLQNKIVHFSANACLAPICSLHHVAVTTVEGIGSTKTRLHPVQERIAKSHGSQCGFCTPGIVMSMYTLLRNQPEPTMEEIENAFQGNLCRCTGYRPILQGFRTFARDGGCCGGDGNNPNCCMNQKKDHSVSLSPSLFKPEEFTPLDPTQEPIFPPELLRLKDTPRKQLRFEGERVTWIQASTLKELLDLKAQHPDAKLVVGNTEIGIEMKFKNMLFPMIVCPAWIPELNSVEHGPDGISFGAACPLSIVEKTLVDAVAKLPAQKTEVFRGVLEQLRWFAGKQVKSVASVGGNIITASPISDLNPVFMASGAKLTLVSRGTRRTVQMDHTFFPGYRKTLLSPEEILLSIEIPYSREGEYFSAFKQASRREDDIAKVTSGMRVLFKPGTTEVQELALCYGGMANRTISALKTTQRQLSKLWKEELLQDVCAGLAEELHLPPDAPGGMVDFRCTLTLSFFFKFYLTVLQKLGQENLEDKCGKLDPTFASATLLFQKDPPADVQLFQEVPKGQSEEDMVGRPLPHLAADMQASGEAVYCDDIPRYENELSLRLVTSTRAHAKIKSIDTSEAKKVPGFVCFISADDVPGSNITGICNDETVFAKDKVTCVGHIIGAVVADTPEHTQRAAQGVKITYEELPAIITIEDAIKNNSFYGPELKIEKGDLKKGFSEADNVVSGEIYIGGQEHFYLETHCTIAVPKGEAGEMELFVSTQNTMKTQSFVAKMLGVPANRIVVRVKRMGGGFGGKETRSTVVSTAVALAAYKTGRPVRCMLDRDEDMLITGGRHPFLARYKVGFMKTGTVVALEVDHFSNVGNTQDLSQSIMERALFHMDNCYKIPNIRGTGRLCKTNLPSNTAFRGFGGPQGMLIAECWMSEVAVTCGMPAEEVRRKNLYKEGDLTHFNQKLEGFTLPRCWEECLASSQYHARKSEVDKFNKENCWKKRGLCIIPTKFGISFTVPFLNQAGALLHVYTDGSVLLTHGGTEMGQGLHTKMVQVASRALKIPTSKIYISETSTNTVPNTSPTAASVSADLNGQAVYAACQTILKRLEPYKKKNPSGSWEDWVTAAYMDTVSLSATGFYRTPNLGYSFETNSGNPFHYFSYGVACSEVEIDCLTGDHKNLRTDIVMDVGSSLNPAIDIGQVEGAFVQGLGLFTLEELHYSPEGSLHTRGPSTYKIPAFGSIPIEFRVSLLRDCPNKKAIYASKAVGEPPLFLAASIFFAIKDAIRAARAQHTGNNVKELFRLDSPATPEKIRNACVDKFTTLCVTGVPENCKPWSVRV

pIC50: 4.38
Compound: CCC(C)C(=O)C1C(=O)[C@@](C)(CC=C(C)C)C(=O)[C@@]2(C[C@H]3[C@H](CC[C@@]3(C)O)[C@](C)(O)C2)C1=O (stereo partly specified)
